Measurements: patent publication US20120077705A1, “Methods for Identifying Autophagy Inducing Compounds” (President and Fellows of Harvard College, priority 2007, published 2012)
Values joined by “and” are separate entries in the source; they are usually repeats but may differ in a detail not shown here. Equal entries are not always repeated. Where two headings read alike, the source gives them in different places. Non-standard residues stand in square brackets, D forms with d. Residues, ends and D or L forms follow the SMILES beside them. Nle = CCCC[C@H](N)C(=O)O

Experiments:
Type in all cases: cell-based
FYVE-RFP = experiment: High-content analysis of FYVE-RFP fluorescence (PI(3)P level) in H4-FYVE cell line
Description: Class III PI(3)K Vps34 is a multifunctional protein. On the one hand, it catalyzes the phosphorylation of PI to generate PI(3)P and is of key importance in the endocytic and autophagosome membrane transport processes. At the same time, a compound formed from Vps34/beclin1 is involved in the regulation of autophagy initiation signaling. Therefore, while the autophagy process is taking place, the level of PtdIns(3)P should not be expected to decrease to a significant extent. A FYVE domain is a protein structure domain composed of approximately 70 amino acid residues and containing a zinc finger protein structure; it can bind specifically with PI(3)P. Generally, PI(3)P recruits proteins containing a FYVE domain in order to bind to the membrane of cellular organelles, and participate in protein trafficking and similar processes.
H4 cells were transfected with the fusion protein FYVP-red fluorescent protein (FYVE-RFP). After transfection, the cells were screened in order to obtain a suitable H4-FYVE cell line to be used as a screening platform to perform high-volume screening of compounds, which thereby indirectly reflected the effect of the compound on autophagy. Compounds which reduced FYVE-RFP fluorescence intensity were eliminated. In this experiment, change in the intensity, fluorescence and distribution of the protein marker FYVE-RFP recruited by PI(3)P before and after treatment with the potential autophagy inducing compound was assayed by high-content microscopic analysis.
DMSO was used to dilute, dissolve, and prepare a compound at different concentrations with each concentration repeated three times. A 96-well plate was inoculated with H4-FYVE cells at an appropriate density and treated with the compound for 2, 4, and 8 hours, respectively. […] If a compound affected FYVE expression or distribution, then this would be embodied precisely in the image and in the size and intensity of fluorescent spots and other numerical values.

long-lived proteins = experiment: Degradation of (3H) L-leucine labelled long-lived proteins in H4 cells; conditions: relative to blank control
Description: The process of autophagy is a protein degradation process, which primarily mediates the degradation of cellular organelles and long-lived proteins within the cell. Therefore, in the present experiment the detection of whether a compound promotes the degradation of long-lived proteins within the cell was used as an additional indicator of whether the tested compound induces autophagy.
DMSO was used to dilute, dissolve, and prepare a compound at different concentrations with each concentration repeated three times. A 96-well plate was inoculated with H4 cells at an appropriate density and treated with the compound for 2, 4, and 24 hours, respectively. […] One day prior to the experiment, cells were inoculated onto a 12-well plate at an appropriate density and cultured under normal conditions (DMEM +10% fetal calf serum). […] Then, a complete medium containing (3H) L-leucine was used to incubate the cells for 24 hours causing the cells to take in isotope-labeled leucine and undertake protein synthesis. After 24 hours, a complete culture medium was substituted and used to incubate the cells for 24 hours to degrade short-lived proteins. After the short-lived proteins had been degraded, a complete culture medium to which the compound had been added was substituted and used to incubate the cells. The radiation intensity of the culture medium was tested at 0, 1, 2, 4, and 24 hours, respectively. At 24 hours, the cells were collected and the intensity of the isotope within the cells was tested, and the percent of long-lived protein degradation relative to the blank control group at different times after the action of the compound was computed. Compounds that increased the degradation of long-lived proteins were selected by means oft-test.

LC3 II = experiment: Western blot of LC3 II in H4-LC cells
Description: The autophagosome marker LC3 used in the compound-screening platform was subjected to the foregoing processing in the cytosol. Generally when the new LC3 synthesized within the cell was processed, it became cytosolic soluble LC3 I with molecular weight 18 Kd. […] The quantity of LC3 II content reflects to a certain degree the autophagic activity of a cell. Therefore, by assaying the content of LC3 II in the cell by means of the Western blot method, it is possible to further reflect the effect of the compound on autophagy.
H4-LC cells at an appropriate density were inoculated onto a 6-well plate, which was treated with a compound for 4 hours, after which the cells were collected and lysed. The protein fraction was harvested and SDS-PAGE was performed. Following electrophoresis separation the proteins were transferred to a membrane, and immunoblot analysis was performed. The cytoskeleton protein, actin, was used as an internal control.

GFP-polyQ-HA = experiment: Degradation of expanded polyglutamine (GFP-polyQ-HA) in transfected H4 cells, anti-HA blot
Experimental: Large-scale accumulation of misfolded protein is a prominent feature of many neurodegenerative diseases. For example, the pathogenic mechanism of Huntington's disease is that a large amount of polyglutamine (polyQ) protein accumulates in the neurons and cannot be cleared away. Tests of polyQ elimination and degradation were used in this experiment to further determine the ability if the tested compounds to induce autophagy.
The compounds selected through screening were dissolved in DMSO and diluted in a stepwise manner in complete culture medium.

[1] = H4-LC cells, 4 hours, immunoblot, FIG. 1
[2] = H4 cells transfected with GFP-polyQ-HA, 24 hours, screening concentration and dilutions 1:2.5, 1:5, 1:10, FIG. 2

Row | SMILES | Relative fluorescent intensity of FYVE-RFP (%) (FYVE-RFP; H4-FYVE cells, 2 h) | Relative fluorescent intensity of FYVE-RFP (%) (FYVE-RFP; H4-FYVE cells, 4 h) | Relative fluorescent intensity of FYVE-RFP (%) (FYVE-RFP; H4-FYVE cells, 8 h) | also measured
1 | CCCNCC(O)COc1ccccc1C(=O)CCc1ccccc1 (stereo not shown) [Propafenone] | 114.69 ± 8.90 | 78.75 ± 18.93 | 62.87 ± 3.38 | –
2 | COC(=O)[C@@]1(O)C[C@H]2O[C@]1(C)n1c3ccccc3c3c4c(c5c6ccccc6n2c5c31)C(=O)NC4 [K252A] | 76.86 ± 6.51 | 65.58 ± 9.36 | 70.33 ± 5.89 | –
3 | CCCNC(=O)[C@H]1O[C@@H]1C(=O)N[C@H](C(=O)N1CCC[C@H]1C(=O)OC)[C@@H](C)CC [CA-074-Me] | 65.94 ± 12.73 | 79.82 ± 4.66 | 86.43 ± 4.15 | –
4 | N#Cc1cc2c(OCC(O)CN3CCN(C(c4ccccc4)c4ccccc4)CC3)cccc2[nH]1 (stereo not shown) [SDZ-201106] | 65.87 ± 4.72 | 59.79 ± 2.38 | 72.40 ± 20.27 | –
5 | CCCCc1oc2ccccc2c1C(=O)c1cc(I)c(OCCN(CC)CC)c(I)c1.Cl [Amiodarone] | – | – | – | Relative fluorescent intensity of FYVE-RFP (%) (FYVE-RFP): 92.50 ± 5.51% and 89.23 ± 3.47% and 83.45 ± 3.64%; Percent relative degradation of long-lived proteins (%) (long-lived proteins; 1 h): 101.32 ± 5.95%; Percent relative degradation of long-lived proteins (%) (long-lived proteins; 2 h): 122.42 ± 9.71%; Percent relative degradation of long-lived proteins (%) (long-lived proteins; 4 h): 110.75 ± 3.68%; Percent relative degradation of long-lived proteins (%) (long-lived proteins; 24 h): 116.73 ± 5.54%; Increase of endogenous LC3 II / LC3 II/LC3 I percentage (LC3 II; [1]): increase of endogenous LC3 II; polyQ degradation (GFP-polyQ-HA): increased polyQ degradation
6 | CN(C)C(=O)C(CCN1CCC(O)(c2ccc(Cl)cc2)CC1)(c1ccccc1)c1ccccc1.Cl [Loperamide] | – | – | – | Increase of endogenous LC3 II / LC3 II/LC3 I percentage (LC3 II): increase of endogenous LC3 II
7 | CN(CCc1ccc(Cl)c(Cl)c1)CC(O)COc1ccc(NS(C)(=O)=O)cc1 (stereo not shown) [AM 92016] | 68.06 ± 1.20 | 71.97 ± 15.67 | 66.35 ± 17.66 | –
8 | CN1CCN(C2=Nc3cc(Cl)ccc3Nc3ccccc32)CC1 [Clozapine] | 64.04 ± 2.94 | 74.79 ± 13.43 | 78.38 ± 1.35 | –
9 | CN(C)C[C@H](O)Cn1c2ccc(Br)cc2c2cc(Br)ccc21 (racemic) [Wiskostatin] | 267.90 ± 6.16 | 240.08 ± 4.26 | 131.93 ± 11.05 | –
10 | CN1CCN(CCCN2c3ccccc3Sc3ccc(C(F)(F)F)cc32)CC1 [Trifluoperazine] | 136.58 ± 15.74 | 111.52 ± 13.45 | 94.28 ± 2.87 | Percent relative degradation of long-lived proteins (%) (long-lived proteins; 1 h): 76.62 ± 2.32%; Percent relative degradation of long-lived proteins (%) (long-lived proteins; 2 h): 105.60 ± 5.01%; Percent relative degradation of long-lived proteins (%) (long-lived proteins; 4 h): 109.00 ± 5.22%; Percent relative degradation of long-lived proteins (%) (long-lived proteins; 24 h): 124.78 ± 2.05%; Increase of endogenous LC3 II / LC3 II/LC3 I percentage (LC3 II; [1]): increase of endogenous LC3 II; polyQ degradation (GFP-polyQ-HA; [2]): increased polyQ degradation
11 | CO[C@H]1C[C@@H]2CC[C@@H](C)[C@@](O)(O2)C(=O)C(=O)N2CCCC[C@H]2C(=O)O[C@H]([C@H](C)C[C@@H]2CC[C@@H](O)[C@H](OC)C2)CC(=O)[C@H](C)/C=C(\C)[C@@H](O)[C@@H](OC)C(=O)[C@H](C)C[C@H](C)/C=C/C=C/C=C/1C [Rapamycin] | – | 131.41 ± 26.64 | – | –
12 | CO[C@@H]1C[C@@H](C[C@H]2CC[C@H](C)[C@H]([C@@H](C)C(=O)O)O2)O[C@]2(O[C@](C)([C@H]3CC[C@@](C)([C@@H]4O[C@@H]([C@H]5O[C@@](O)(CO)[C@H](C)C[C@@H]5C)C[C@@H]4C)O3)C[C@H]2C)[C@@H]1C [Nigericin] | 148.43 ± 5.17 | 145.40 ± 8.39 | 140.54 ± 18.21 | –
13 | CCCC[C@@H](C=O)NC(=O)[C@H](CC(C)C)NC(=O)[C@H](CC(C)C)NC(C)=O [Ac-Leu-Leu-Nle-CHO] (Ac-Leu-Leu-[Nle]-aldehyde) | 72.86 ± 10.18 | 84.85 ± 2.83 | 88.42 ± 6.29 | –
14 | CC[C@H](C)[C@H](NS(=O)(=O)c1ccc2ccccc2c1)C(=O)N[C@H](C=O)Cc1c[nH]c2ccccc12 [NapSul-Ile-Trp-CHO] | 89.37 ± 3.52 | 64.10 ± 11.47 | 62.34 ± 8.21 | –
15 | COC(=O)c1c(C)[nH]c(C)c1C(=O)c1ccccc1Cc1ccccc1 [FPL-64176] | 99.43 ± 9.62 | 78.17 ± 1.90 | 87.62 ± 2.42 | –
16 | O=C(/C=C/c1ccc(O)c(O)c1)OCCc1ccccc1 [CAPE] | 86.89 ± 20.98 | 71.17 ± 18.70 | 69.14 ± 4.32 | –
17 | CC/C(=C(\c1ccccc1)c1ccc(OCCN(C)C)cc1)c1ccccc1 [Tamoxifen] | 77.66 ± 4.43 | 71.55 ± 0.73 | 85.37 ± 7.59 | –
18 | COC(=O)C1=C(C)NC(C)=C([N+](=O)[O-])C1c1ccccc1C(F)(F)F (stereo not shown) [Bay K-8644] | 110.18 ± 25.18 | 57.79 ± 3.76 | 79.70 ± 7.28 | –
19 | CCN(CC)CCCCCCCCOC(=O)c1cc(OC)c(OC)c(OC)c1 [TMB-8] | 89.59 ± 4.79 | 74.72 ± 13.74 | 78.64 ± 10.26 | –
20 | C=C[C@H]1C[N@@]2CC[C@H]1C[C@H]2[C@H](O)c1ccnc2ccc(OC)cc12 [Quinine] | 70.35 ± 10.23 | 78.03 ± 6.33 | 60.70 ± 6.59 | –
21 | CC(C)(O)[C@H]1O[C@H]2CC[C@@]3(C)[C@@](O)(CC[C@H]4Cc5c([nH]c6ccccc56)[C@@]43C)C2=CC1=O [Paxilline] | 100.56 ± 0.58 | 52.37 ± 1.65 | 56.82 ± 4.44 | –
22 | O=C1NCN(c2ccccc2)C12CCN(CCCC(c1ccc(F)cc1)c1ccc(F)cc1)CC2 [Fluspirilene] | – | – | – | polyQ degradation (GFP-polyQ-HA; [2]): increased polyQ degradation
23 | CC1=C2C[C@H]3[C@@H](CC=C4C[C@@H](O)CC[C@@]43C)[C@@H]2CC[C@]12O[C@@H]1C[C@H](C)CN[C@H]1[C@H]2C [Cyclopamine] | 108.75 ± 12.44 | 75.21 ± 1.18 | 96.38 ± 5.12 | –
